Holding throughout (type): cell-based
The test system of test [1] is IL3000 T. congolense (drug sensitive) strain. Briefly: In vitro Alamar Blue 72 h drug sensitivity assay for T. congolense. The settings on record: Trypanosoma congolense; bloodstream form, 69 h + 3 h resazurin, 34° C.; classes A-C; read-out: IC50: I Org. Growth T. congolense IL-3000, 3 d. The method, boiled down: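 Bloodstream-form trypanosomes in HMI medium with 20% bovine serum, exposed to compound for 69 h at 34 °C, 5% CO2, then resazurin for 3 h more. Fluorescence read at 536/588 nm. IC50 from 11-point sigmoidal dose-response curves, at least three independent runs.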
Background: Alamar Blue is a resazurin reagent that responds to reducing activity.

In test [2] the test system is TdTomato-modified T. cruzi (CL strain) in Vero cells. Briefly: In vitro IC50 measurement of T. cruzi amastigote killing using TdTomato-modified T. cruzi (CL strain). The settings on record: Trypanosoma cruzi, 72 h, fluorescence, read-out: IC50: I Org. amastigote Growth T. cruzi CL TdTomato, 3 d. An outline of the steps: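 Vero cells were infected with tdTomato-expressing CL-strain parasites and dosed at 5 uM–5 nM. Fluorescence (ex 544/em 612 nm) was read at day 0 and again after 72 h at 37 °C, with day 0 values subtracted. IC50 and IC90 came from nonlinear regression.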

Test [3] deals with promastigote forms of L. major. Briefly: Leishmania major promastigote growth inhibition assay (Alamar Blue). To be noted: promastigotes, 44 hours + 4 hours Alamar Blue, read-out: IC50: I Org. promastigote Growth L. major, 2 d. The text has this: Example 108. Leishmania major Promastigote Growth Inhibition Assay
The promastigote assay is a microtiter plate drug sensitivity prescreen assay used to determine antileishmanial activity of candidate drugs against promastigote forms of L. major. (Shadow et al., PLOS Neglected Tropical Diseases, 2009, e311.) Alamar Blue, or resazurin, is a non-fluorescent indicator dye that is converted to bright red-fluorescent resorufin via the activity of mitochondrial reductases. As the activity of mitochondrial reductases is reduced in cells that are dead or dying, and the intensity of the fluorescence is relative to cell number, a test compound that kills or inhibits growth of a particular target cell, such as L. major, will result in a lower production of fluorescent signal. Pre-dosed microtiter drug plates for use in the promastigote drug prescreen assay were produced using sterile 384-well black optical bottom tissue culture plates (Nunc Cat #12-565-344). Candidate drugs were diluted in dimethyl sulfoxide in four 96-well plates to either 10,000 ng/ml or 1,000 ng/ml, and 4.25 μL of diluted drug was subsequently dispensed into each well of a 384-well plate. Duplicate 384 well plates were made at each test concentration (10,000 ng/mL and 1,000 ng/mL) and amphotericin B was used as a batch control. The Tecan EVO Freedom liquid handling system (Tecan US, Inc., Durham, N.C.) was used to produce all drug assay plates and conduct all pipetting operations for this assay. L. major parasites were cultured in Schneider's medium (Lonza Cat #04-351Q) supplemented with 20% heat inactivated FBS (Invitrogen Cat #16140-089). Promastigotes in early log growth phase were harvested from culture, counted, suspended at 1.32×10^5 cells/mF and 5,000 promastigotes were dispensed into each well of the 384 well plate in a volume of 38.8 μL. The 384 well plates were subsequently incubated at 28° C. for 44 hours. 8.4 μF of Alamar Blue (Promega, Cat #G8081) was added to each well, the plates were subsequently incubated at 28° C. and 5% CO2 for 4 hours and then examined for the relative fluorescence units (RFU) per well using the Tecan Genios Plus (Tecan US, Inc., Durham, N.C.) with excitation set at 560 nm and emission set at 590 nm. The relative fluorescence from each well was used to determine the percent growth inhibition of each candidate compound tested. Compounds with 50% or greater inhibition of growth were selected for further analysis to determine IC50 values.

As a reminder, the IC50 is the concentration at which inhibition is half-maximal. Take `CC1OB(O)c2cc(NC(=O)c3cn(-c4ccccc4)nn3)ccc21` (stereo not shown) [Example 2]: the IC50 in test [1] was less than 100 nM; in test [2], less than 600 nM; in test [3], less than 600 nM.
As for `O=C(Nc1ccc2c(c1)B(O)OC21CCC1)c1cn(-c2ccccc2)nn1` [Example 3, N-(1-hydroxy-1H-spiro[benzo[c][1,2]oxaborole-3,1′-cyclobutan]-6-yl)-1-phenyl-1H-1,2,3-triazole-4-carboxamide], the figures for the IC50 in test [1], in test [2] and in test [3] were 100 to 300 nM, 1100 to 10000 nM and 600 to 2500 nM, respectively.
For `Cc1c(C(=O)Nc2ccc3c(c2)B(O)OC32CCC2)nnn1-c1ccccc1` [Example 4, N-(1-hydroxy-1H-spiro[benzo[c][1,2]oxaborole-3,1′-cyclobutan]-6-yl)-5-methyl-1-phenyl-1H-1,2,3-triazole-4-carboxamide], in that order: 100 to 300 nM, 600 to 1000 nM and 600 to 2500 nM.
On the same counts, the results for `CC1OB(O)c2cc(NC(=O)c3cn(-c4ccc(F)cc4)nn3)ccc21` (stereo not shown) [Example 5] are 100 to 300 nM, 600 to 1000 nM and 600 to 2500 nM.
For `Cc1c(C(=O)Nc2ccc3c(c2)B(O)OC3C)nnn1-c1ccc(F)cc1` (stereo not shown) [Example 6, 1-(4-fluorophenyl)-N-(1-hydroxy-3-methyl-1,3-dihydrobenzo[c][1,2]oxaborol-6-yl)-5-methyl-1H-1,2,3-triazole-4-carboxamide], in that order: 100 to 300 nM, 600 to 1000 nM and 600 to 2500 nM.
`O=C(Nc1ccc2c(c1)B(O)OC21CCC1)c1cn(-c2ccc(F)cc2)nn1` [Example 7, 1-(4-fluorophenyl)-N-(1-hydroxy-1H-spiro[benzo[c][1,2]oxaborole-3,1′-cyclobutan]-6-yl)-1H-1,2,3-triazole-4-carboxamide]: the concentration for half-maximal inhibition (IC50) in test [1] was in the range of 310 to 100000 nM; in test [2], 1100 to 10000 nM; in test [3] it was 2510 to 20000 nM.
With `O=C(Nc1ccc2c(c1)B(O)OC21CCC1)c1cn(-c2cccnc2)nn1` [Example 8, N-(1-hydroxy-1H-spiro[benzo[c][1,2]oxaborole-3,1′-cyclobutan]-6-yl)-1-(pyridin-3-yl)-1H-1,2,3-triazole-4-carboxamide], the IC50 in test [1] was 310 to 100000 nM; in test [2], 1100 to 10000 nM; in test [3], 2510 to 20000 nM.
For `Cc1c(C(=O)Nc2ccc3c(c2)B(O)OC32CCC2)nnn1-c1ccc(F)cc1` [Example 9, 1-(4-fluorophenyl)-N-(1-hydroxy-1H-spiro[benzo[c][1,2]oxaborole-3,1′-cyclobutan]-6-yl)-5-methyl-1H-1,2,3-triazole-4-carboxamide], in that order: 310 to 100000 nM, 1100 to 10000 nM and 600 to 2500 nM.
Turning to `Cc1ccc(-n2cc(C(=O)Nc3ccc4c(c3)B(O)OC4)nn2)cc1` [Example 10, N-(1-hydroxy-1,3-dihydrobenzo[c][1,2]oxaborol-6-yl)-1-(p-tolyl)-1H-1,2,3-triazole-4-carboxamide], the IC50 was less than 100 nM in test [1], less than 600 nM in test [2] and less than 600 nM in test [3].
In the case of `Cc1ccc(-n2nnc(C(=O)Nc3ccc4c(c3)B(O)OC4)c2C)cc1` [Example 11, N-(1-hydroxy-1,3-dihydrobenzo[c][1,2]oxaborol-6-yl)-5-methyl-1-(p-tolyl)-1H-1,2,3-triazole-4-carboxamide], the half-maximal inhibitory concentration (IC50) in test [1] is less than 100 nM; in test [2], 1100 to 10000 nM; in test [3], less than 600 nM.
Take `CC1OB(O)c2cc(NC(=O)c3cn(-c4cccnc4)nn3)ccc21` (stereo not shown) [Example 12, N-(1-hydroxy-3-methyl-1,3-dihydrobenzo[c][1,2]oxaborol-6-yl)-1-(pyridin-3-yl)-1H-1,2,3-triazole-4-carboxamide]: the IC50 in test [1] was less than 100 nM; in test [2] it was 600 to 1000 nM; in test [3] it was 2510 to 20000 nM.
On the same counts, the results for `Cc1ccc(-n2nnc(C(=O)Nc3ccc4c(c3)B(O)OC4C)c2C)cc1` (stereo not shown) [Example 13, N-(1-hydroxy-3-methyl-1,3-dihydrobenzo[c][1,2]oxaborol-6-yl)-5-methyl-1-(p-tolyl)-1H-1,2,3-triazole-4-carboxamide] are 100 to 300 nM, 600 to 1000 nM and 600 to 2500 nM.
For `Cc1c(C(=O)Nc2ccc3c(c2)B(O)OC3C)nnn1-c1cccnc1` (stereo not shown) [Example 14], in that order: less than 100 nM, 1100 to 10000 nM and 2510 to 20000 nM.
`Cc1ccc(-n2cc(C(=O)Nc3ccc4c(c3)B(O)OC43CCC3)nn2)cc1` [Example 15]: the values for the IC50 in test [1], in test [2] and in test [3] were 100 to 300 nM, 1100 to 10000 nM and 2510 to 20000 nM, respectively.
On the same counts, the results for `Cc1ccc(-n2nnc(C(=O)Nc3ccc4c(c3)B(O)OC43CCC3)c2C)cc1` [Example 16, N-(1-hydroxy-1H-spiro[benzo[c][1,2]oxaborole-3,1′-cyclobutan]-6-yl)-5-methyl-1-(p-tolyl)-1H-1,2,3-triazole-4-carboxamide] are 310 to 100000 nM, 1100 to 10000 nM and 600 to 2500 nM.
Consider `Cc1c(C(=O)Nc2ccc3c(c2)B(O)OC32CCC2)nnn1-c1cccnc1` [Example 17, N-(1-hydroxy-1H-spiro[benzo[c][1,2]oxaborole-3,1′-cyclobutan]-6-yl)-5-methyl-1-(pyridin-3-yl)-1H-1,2,3-triazole-4-carboxamide], for which the results for the 50% inhibitory concentration (IC50) in test [1], in test [2] and in test [3] were 310 to 100000 nM, 1100 to 10000 nM and 2510 to 20000 nM, respectively.
For `Cc1ccc(-n2cc(C(=O)Nc3ccc4c(c3)B(O)OC4C)nn2)cc1` (stereo not shown) [Example 18, N-(1-hydroxy-3-methyl-1,3-dihydrobenzo[c][1,2]oxaborol-6-yl)-1-(p-tolyl)-1H-1,2,3-triazole-4-carboxamide], in that order: less than 100 nM, less than 600 nM and 600 to 2500 nM.
On to `O=C(Nc1ccc2c(c1)B(O)OC2)c1cn(-c2ccc(F)cc2)nn1` [Example 60, 1-(4-Fluorophenyl)-N-(1-hydroxy-1,3-dihydrobenzo[c][1,2]oxaborol-6-yl)-1H-1,2,3-triazole-4-carboxamide], for which, in test [1], the IC50 was less than 100 nM.
Still for that read-out and setting: as for `O=C(Nc1ccc2c(c1)B(O)OC2)c1nnn(-c2ccccc2F)c1C(F)(F)F` [Example 67, 1-(2-Fluorophenyl)-N-(1-hydroxy-1,3-dihydrobenzo[c][1,2]oxaborol-6-yl)-5-(trifluoromethyl)-1H-1,2,3-triazole-4-carboxamide], the figure is 100 to 300 nM; as for `O=C(Nc1ccc2c(c1)B(O)OC2)c1nnn(-c2cccc(F)c2)c1C(F)(F)F` [Example 69, 1-(3-Fluorophenyl)-N-(1-hydroxy-1,3-dihydrobenzo[c][1,2]oxaborol-6-yl)-5-(trifluoromethyl)-1H-1,2,3-triazole-4-carboxamide], 100 to 300 nM; as for `O=C(Nc1ccc2c(c1)B(O)OC2)c1nnn(-c2ccc(F)cc2)c1C(F)(F)F` [Example 70, 1-(4-Fluorophenyl)-N-(1-hydroxy-1,3-dihydrobenzo[c][1,2]oxaborol-6-yl)-5-(trifluoromethyl)-1H-1,2,3-triazole-4-carboxamide], 100 to 300 nM.
The same measure, in the same setting: as for `O=C(Nc1ccc2c(c1)B(O)OC2)c1nnn(-c2cccnc2)c1C(F)(F)F` [Example 71, N-(1-hydroxy-1,3-dihydrobenzo[c][1,2]oxaborol-6-yl)-1-(pyridin-3-yl)-5-(trifluoromethyl)-1H-1,2,3-triazole-4-carboxamide], the figure is less than 100 nM.
Consider `COc1ccc(-n2nnc(C(=O)Nc3ccc4c(c3)B(O)OC4)c2C)cc1` [Example 91, N-(1-hydroxy-1,3-dihydrobenzo[c][1,2]oxaborol-6-yl)-1-(4-methoxyphenyl)-5-methyl-1H-1,2,3-triazole-4-carboxamide], for which the 50% inhibitory concentration (IC50) was 100 to 300 nM in test [1] and less than 600 nM in test [3].

(Values after patent US11691992B2 (Anacor Pharmaceuticals, Inc., priority 2017, dated 2023).)
